Data: patent US20250115598A1 (Anaxis Pharma Pty Ltd, priority 2021, published 2025)
Where two headings read alike, the source gives them in different places.

Legend:
U937 cells = experiment: Counter screen: cell viability without the TSQ cocktail (off-target effect); set-up: species or system human
Procedure: (§1) • Cell Line ID: U937 human histiocytic leukemia cell line. • Cell Concentration (cells/well): Final cell density is 20000 cells per well. • Cell growth medium: HT-RPMI medium+7.4% Fetal Bovine Serum (FBS). Cells are cultured in Corning 150 cm^2 tissue culture flasks with vented caps at 37° C./5% CO2. • Incubation: Plates were incubated at 37° C./5% CO2 in a humidified incubator for 48 hours following addition of compounds and death stimuli (TSQ cocktail). • Compound concentration: 36 μM starting concentration, 1:3 dilution, 10 point • DMSO final concentration (% v/v): 0.3%. Compounds in TSQ Cocktail (T: TNF; S: Smac Mimetic; Q: Q-VD-OPh) and their Final Concentrations: • hTNF-Fc (100 ng/ml)—produced by standard procedures as shown in Bossen et al., J. Biol. Chem., 2006, 281(20), 13964-13971. • Compound A (500 nM)—Smac mimetic, Tetralogic and SYNthesis med chem • Q-VD-OPh (10 μM)—MP Biomedicals
(§2) The cellular assay was carried out according to the following steps: • 1. Each well was prepared by sequential addition of: • a. DMSO (control; columns 1-2 and 23-24) or compound in DMSO—addition was performed using acoustic transfer of nL volumes of stock compound to give final test concentrations of 36, 12, 4, 1.3, 0.44, 0.148, 0.049, 0.016, 0.005 and 0.002 μM. All wells were backfilled with DMSO to a final total volume in the well of 100 nL. • b. Following compound/DMSO addition in step (a), 40 μL of cell suspension (5×10^5 cells/mL) was added to provide a final cell concentration of 20,000 cells per well, and • c. Following cell addition in step (b), 10 μL of 5×TSQ cocktail (except to positive controls; columns 1 and 23) was added to each well. • 2. After 48 hours, plate was removed from the 37° C. incubator and equilibrated to room temperature for 45 minutes. • 3.15 μL of room temperature CellTitre-Glo2™ (Promega™) was added to each well. • 4. Shook plates for 2 minutes (˜600 rpm) and incubated at room temperature for 15 minutes to allow signal to stabilise. • 5. Read luminescence readout on a plate reader.
(§3) • Assay involving the TSQ cocktail (T: TNF; S: Smac mimetic; Q: Q-VD-OPh): TSQ treatment ensures that cells specifically undergo necroptotic cell death. TNF activates the TNF receptor, Smac mimetic directs the signal away from proinflammatory signaling and toward the RIPK1/RIPK3-mediated cell death pathways, and Q-VD-OPh ensures that the apoptotic response is blocked leaving only the programmed necrosis response. The compounds' activity (solution in DMSO) tested in this TSQ-induced assay was evaluated by determining the number of viable cells in culture by measuring the amount of ATP present as measured by CelltiterGlo. • Counter screen: In parallel, all compounds were tested for their ability to affect cell viability. The same U937 cells were treated with compound in DMSO without the TSQ cocktail. This counter screen enabled evaluation of off-target effects. In this case, cell viability was measured by CelltiterGlo.

human RIPK1 = human RIPK1 (Homo sapiens (Human), UniProt Q13546); experiment: KINOMEscan binding assay, human RIPK1; details: Table 21
Outline: (§4)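 In this assay, compounds displace DNA- or phage-tagged kinase from an immobilized ligand, and eluted kinase is quantified by qPCR.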

human RIPK3 = human RIPK3 (Homo sapiens (Human), UniProt Q9Y572); experiment: KINOMEscan binding assay, human RIPK3; details: Table 21
Outline: as §4

[1] = tested on: Immortalised Mouse Dermal Fibroblasts (MDFs); experiment: Cellular assay: inhibition of TSI induced necroptosis, CellTitre-Glo viability; details: Mus musculus, Fibroblast, MDF, 3 hours TSI cocktail, read-out: Inhibition of TSI-induced necroptosis (IC50 cell-based assay) in MDF
Outline: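 Immortalised mouse dermal fibroblasts (2200 cells/well) pretreated 30 min with compound, 10-point 1:3 series from 36 μM, 0.3% DMSO. Then 3 h at 37° C. with TNF (100 ng/ml), Smac mimetic (500 nM) and IDN-6556 (10 μM). CellTiter-Glo luminescence normalised to DMSO (100%) and DMSO+TSI (0%); IC50 from 4-parameter logistic fit.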

[2] = tested on: U937 human histiocytic leukemia cell line; experiment: Cellular assay: inhibition of TSQ induced necroptosis, CellTitre-Glo viability; details: Homo sapiens, U-937; U937 cells, 48 hours, TSQ cocktail, Table 26; read-out: Inhibition of TSQ-induced necroptosis (IC50 cell-based assay)
Procedure: Cellular Assay: Screening Compounds for Inhibition of TSQ Induced Necroptosis, 384 Well Plate Format.
as §1, §2
Percent viability was calculated for each compound according to equation (2):
as §3

human MLKL (full length) = human MLKL (full length) (Homo sapiens (Human), UniProt Q8NB16); experiment: KINOMEscan binding assay, human MLKL (full length); details: hMLKL, Table 25; read-out: MLKL (KD)
Outline: as §4

endogenous MLKL in U937 = endogenous MLKL in U937 (Homo sapiens (Human), UniProt Q8NB16); experiment: Degradation assay: endogenous MLKL in U937 (western blot); details: U937, 24 h incubation, read-out: Degradation of endogenous MLKL in U937 (DC50 cell-based assay)
Outline: (§5)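 MDF (seeded the day before) or U937 cells were treated 24 h at 37 °C, 10% CO2 with compound at 10, 2, 0.4, 0.08 and 0.016 μM final. Endogenous MLKL was quantified by western blot (anti-MLKL 3H1), normalized to GAPDH. Percent degradation was taken relative to DMSO control.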

endogenous MLKL in MDF = endogenous MLKL in MDF (Mus musculus (Mouse), UniProt Q9D2Y4); experiment: Degradation assay: endogenous MLKL in MDF (western blot); details: MDF cells, 24 h incubation with compound, MLKL adjusted for loading with GAPDH, normalized to DMSO only control, read-out: Degradation of endogenous MLKL in MDF (DC50 cell-based assay)
Outline: as §5

[3] = Homo sapiens, U-937, Table 23, read-out: Off-target effect (IC50 cell-based assay)
[4] = Homo sapiens, U-937, Table 26, read-out: Off-target effect (IC50 cell-based assay)

human MLKL (full length), sequence (Q8NB16 whole entry): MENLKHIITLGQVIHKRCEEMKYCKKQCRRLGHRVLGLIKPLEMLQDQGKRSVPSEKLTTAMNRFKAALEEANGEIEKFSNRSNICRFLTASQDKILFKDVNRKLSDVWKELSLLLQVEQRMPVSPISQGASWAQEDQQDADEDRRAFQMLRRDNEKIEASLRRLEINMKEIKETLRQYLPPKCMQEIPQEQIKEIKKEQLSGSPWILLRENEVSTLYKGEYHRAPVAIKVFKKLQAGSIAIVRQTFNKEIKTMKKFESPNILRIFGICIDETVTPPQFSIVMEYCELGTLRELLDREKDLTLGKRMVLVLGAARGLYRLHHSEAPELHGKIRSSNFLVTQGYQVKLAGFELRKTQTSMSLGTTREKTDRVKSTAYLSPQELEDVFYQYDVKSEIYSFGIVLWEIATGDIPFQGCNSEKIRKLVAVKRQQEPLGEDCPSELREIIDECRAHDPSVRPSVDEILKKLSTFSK
human RIPK3, sequence (Q9Y572 whole entry): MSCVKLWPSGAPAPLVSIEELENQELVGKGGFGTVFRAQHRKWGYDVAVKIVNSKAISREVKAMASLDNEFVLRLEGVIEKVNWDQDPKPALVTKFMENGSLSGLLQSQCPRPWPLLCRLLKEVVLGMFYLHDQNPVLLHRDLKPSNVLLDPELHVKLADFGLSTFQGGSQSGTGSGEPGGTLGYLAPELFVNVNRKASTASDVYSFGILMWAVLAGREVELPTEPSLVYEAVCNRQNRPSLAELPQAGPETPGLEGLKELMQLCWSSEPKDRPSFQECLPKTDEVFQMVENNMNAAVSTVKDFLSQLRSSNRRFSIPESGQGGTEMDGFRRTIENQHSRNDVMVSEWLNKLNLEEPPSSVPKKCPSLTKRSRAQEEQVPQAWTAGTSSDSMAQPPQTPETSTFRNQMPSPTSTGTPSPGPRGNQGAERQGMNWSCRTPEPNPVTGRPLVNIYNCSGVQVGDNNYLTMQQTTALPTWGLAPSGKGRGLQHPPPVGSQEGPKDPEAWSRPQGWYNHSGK
human RIPK1, sequence (Q13546 whole entry): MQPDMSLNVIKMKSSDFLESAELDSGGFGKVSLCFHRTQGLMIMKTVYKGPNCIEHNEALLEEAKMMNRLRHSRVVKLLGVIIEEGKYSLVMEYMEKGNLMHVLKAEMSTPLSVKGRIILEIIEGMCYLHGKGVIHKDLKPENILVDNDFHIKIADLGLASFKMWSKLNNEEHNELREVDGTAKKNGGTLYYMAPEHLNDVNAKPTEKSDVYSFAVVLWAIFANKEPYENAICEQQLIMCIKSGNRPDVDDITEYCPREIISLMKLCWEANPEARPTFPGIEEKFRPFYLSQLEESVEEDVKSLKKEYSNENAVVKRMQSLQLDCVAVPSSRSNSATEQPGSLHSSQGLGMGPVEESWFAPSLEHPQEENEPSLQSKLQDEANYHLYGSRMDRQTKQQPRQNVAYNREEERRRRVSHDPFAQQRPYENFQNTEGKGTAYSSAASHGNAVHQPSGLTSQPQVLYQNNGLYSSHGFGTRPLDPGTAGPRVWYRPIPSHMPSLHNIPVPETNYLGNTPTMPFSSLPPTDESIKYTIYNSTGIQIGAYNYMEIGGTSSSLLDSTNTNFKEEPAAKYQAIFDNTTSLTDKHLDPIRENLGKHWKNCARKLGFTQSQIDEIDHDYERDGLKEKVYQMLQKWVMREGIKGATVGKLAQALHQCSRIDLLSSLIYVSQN
endogenous MLKL in U937, sequence (Q8NB16 whole entry): as the sequence (Q8NB16 whole entry) above
endogenous MLKL in MDF, sequence (Q9D2Y4 whole entry): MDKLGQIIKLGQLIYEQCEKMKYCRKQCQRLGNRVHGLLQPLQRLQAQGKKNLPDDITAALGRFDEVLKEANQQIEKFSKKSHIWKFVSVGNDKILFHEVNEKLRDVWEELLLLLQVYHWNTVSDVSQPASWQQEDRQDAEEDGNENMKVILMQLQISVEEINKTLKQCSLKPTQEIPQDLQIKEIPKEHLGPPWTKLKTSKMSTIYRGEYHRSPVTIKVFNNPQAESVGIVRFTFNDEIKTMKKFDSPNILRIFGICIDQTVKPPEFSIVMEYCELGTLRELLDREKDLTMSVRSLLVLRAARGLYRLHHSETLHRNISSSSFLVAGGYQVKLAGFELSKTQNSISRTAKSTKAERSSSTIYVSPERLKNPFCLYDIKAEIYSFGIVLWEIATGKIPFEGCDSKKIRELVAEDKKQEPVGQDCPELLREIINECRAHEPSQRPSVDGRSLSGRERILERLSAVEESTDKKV

Kd (human MLKL (full length)) [µM] | SMILES | IC50 (U937 cells; [3]) [µM] | IC50 [2] [µM] | IC50 (U937 cells; [4]) [µM] | further results
 | C[C@H](Oc1cc(-c2nn(C)c3c(-c4cnn(C5CCN(C)C6(CC6)C5)c4)cnc(N)c23)ccc1NS(=O)(=O)C(F)F)c1ccc(F)cc1 (single isomer, unassigned) [Compound 170, N-(4-(4-amino-1-methyl-7-(1-((S*)-4-methyl-4-azaspiro[2.5]octan-7-yl)-1H-pyrazol-4-yl)-1H-pyrazolo[4,3-c]pyridin-3-yl)-2-((S)-1-(4-fluorophenyl)ethoxy)phenyl)-1,1-difluoromethanesulfonamide] | > 10 |  |  | 
 | C[C@H](Oc1cc(-c2nn(C)c3c(-c4cnn(C5CCN(C)C6(CC6)C5)c4)cnc(N)c23)ccc1NS(=O)(=O)C(F)F)c1ccc(F)cc1 (single isomer, unassigned) [Compound 171, N-(4-(4-amino-1-methyl-7-(1-((R*)-4-methyl-4-azaspiro[2.5]octan-7-yl)-1H-pyrazol-4-yl)-1H-pyrazolo[4,3-c]pyridin-3-yl)-2-((S)-1-(4-fluorophenyl)ethoxy)phenyl)-1,1-difluoromethanesulfonamide] |  |  |  | IC50 (U937 cells; Table 23, read-out: Off-target effect (IC50 cell-based assay)): > 10 µM
 | C[C@H](Oc1cc(-c2nn(C)c3c(-c4cnn(C5CCN(C)CC5)c4)cnc(N)c23)ccc1NS(=O)(=O)C(F)F)c1ccc(F)cc1 [Compound 46, (S)-N-(4-(4-amino-1-methyl-7-(1-(1-methylpiperidin-4-yl)-1H-pyrazol-4-yl)-1H-pyrazolo[4,3-c]pyridin-3-yl)-2-(1-(4-fluorophenyl)ethoxy)phenyl)-1,1-difluoromethanesulfonamide] | > 10 |  |  | Kd (human RIPK1): > 10 µM; Kd (human RIPK3): > 10 µM; IC50 ([1]; Table 24): < 1 µM
 | C[C@H](Oc1cc(-c2nn(C)c3c(-c4ccnc(C(C)(C)C)c4)cnc(N)c23)ccc1NS(=O)(=O)C(F)F)c1ccc(F)cc1 [Compound 48, (S)-N-(4-(4-amino-7-(2-(tert-butyl)pyridin-4-yl)-1-methyl-1H-pyrazolo[4,3-c]pyridin-3-yl)-2-(1-(4-fluorophenyl)ethoxy)phenyl)-1,1-difluoromethanesulfonamide] | 1 to 10 |  |  | Kd (human RIPK1): > 10 µM; Kd (human RIPK3): > 10 µM
< 0.01 | CCS(=O)(=O)Nc1ccc(-c2n[nH]c3c(-c4cnn(CCC(=O)N[C@H](C(=O)N5C[C@H](O)C[C@H]5C(=O)NCc5ccc(-c6scnc6C)cc5)C(C)(C)C)c4)cnc(N)c23)cc1OCc1ccc(F)cc1 [Compound 1001, (2S,4R)-1-[(2S)-2-{3-[4-(4-amino-3-{4-ethanesulfonamido-3-[(4-fluorophenyl)methoxy]phenyl}-1H-pyrazolo[4,3-c]pyridin-7-yl)-1H-pyrazol-1-yl]propanamido}-3,3-dimethylbutanoyl]-4-hydroxy-N-{[4-(4-methyl-1,3-thiazol-5-yl)phenyl]methyl}pyrrolidine-2-carboxamide] |  | > 10 | > 10 | 
< 0.01 | CCS(=O)(=O)Nc1ccc(-c2n[nH]c3c(-c4cnn(CCCCC(=O)N[C@H](C(=O)N5C[C@H](O)C[C@H]5C(=O)NCc5ccc(-c6scnc6C)cc5)C(C)(C)C)c4)cnc(N)c23)cc1OCc1ccc(F)cc1 [Compound 1002, (2S,4R)-1-[(2S)-2-{5-[4-(4-amino-3-{4-ethanesulfonamido-3-[(4-fluorophenyl)methoxy]phenyl}-1H-pyrazolo[4,3-c]pyridin-7-yl)-1H-pyrazol-1-yl]pentanamido}-3,3-dimethylbutanoyl]-4-hydroxy-N-{[4-(4-methyl-1,3-thiazol-5-yl)phenyl]methyl}pyrrolidine-2-carboxamide] |  | > 10 | > 10 | 
< 0.01 | CCS(=O)(=O)Nc1ccc(-c2n[nH]c3c(-c4cnn(CCOCC(=O)N[C@H](C(=O)N5C[C@H](O)C[C@H]5C(=O)NCc5ccc(-c6scnc6C)cc5)C(C)(C)C)c4)cnc(N)c23)cc1OCc1ccc(F)cc1 [Compound 1004, (2S,4R)-1-[(2S)-2-(2-{2-[4-(4-amino-3-{4-ethanesulfonamido-3-[(4-fluorophenyl)methoxy]phenyl}-1H-pyrazolo[4,3-c]pyridin-7-yl)-1H-pyrazol-1-yl]ethoxy}acetamido)-3,3-dimethylbutanoyl]-4-hydroxy-N-{[4-(4-methyl-1,3-thiazol-5-yl)phenyl]methyl}pyrrolidine-2-carboxamide] |  | > 10 | > 10 | 
 | CCS(=O)(=O)Nc1ccc(-c2nn(C)c3c(-c4cnn(CCOCCOCC(=O)N[C@H](C(=O)N5C[C@H](O)C[C@H]5C(=O)NCc5ccc(-c6scnc6C)cc5)C(C)(C)C)c4)cnc(C)c23)cc1F [Compound 1029, (2S,4R)-1-[(2S)-2-{2-[2-(2-{4-[3-(4-ethanesulfonamido-3-fluorophenyl)-1,4-dimethyl-1H-pyrazolo[4,3-c]pyridin-7-yl]-1H-pyrazol-1-yl}ethoxy)ethoxy]acetamido}-3,3-dimethylbutanoyl]-4-hydroxy-N-{[4-(4-methyl-1,3-thiazol-5-yl)phenyl]methyl}pyrrolidine-2-carboxamide] |  | < 1 | > 10 | 
< 0.01 | Cn1nc(-c2ccc(NS(=O)(=O)CC(F)(F)F)c(F)c2)c2c(N)ncc(-c3cnn(C4CCN(C(=O)[C@H]5C[C@H](Nc6cccc7c6C(=O)N(C6CCC(=O)NC6=O)C7=O)C5)CC4)c3)c21 (stereo partly drawn) [Compound 1134, N-{4-[4-amino-1-methyl-7-(1-{1-[(trans)-3-{[2-(2,6-dioxopiperidin-3-yl)-1,3-dioxo-2,3-dihydro-1H-isoindol-4-yl]amino}cyclobutanecarbonyl]piperidin-4-yl}-1H-pyrazol-4-yl)-1H-pyrazolo[4,3-c]pyridin-3-yl]-2-fluorophenyl}-2,2,2-trifluoroethane-1-sulfonamide] |  |  |  | IC50 ([1]; Table 27): < 1 µM; DC50 (endogenous MLKL in U937): < 1 µM; DC50 (endogenous MLKL in MDF): < 1 µM
